Results published in PubChem BioAssay (NCI).
“And” between values parts separate entries of the source, which are not always exact repeats. Identical values can stand only once.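 Interpolation was linear, between the two tested concentrations surrounding the appropriate level; five concentrations were tested over 48 hours in 96-well plates. Abbreviation: GI50, concentration required for 50% inhibition of growth. TGI: concentration producing complete growth inhibition.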

Experiments:
Assay in all cases: NCI tumour cell line growth inhibition, 48 h
OVCAR-5 ovarian = system: OVCAR-5 ovarian
KM20L2 colon = system: KM20L2 colon
SNB-19 CNS = system: SNB-19 CNS
HS 578T breast = system: HS 578T breast
CAKI-1 renal = system: CAKI-1 renal
NCI-H522 lung = system: NCI-H522 lung
DLD-1 colon = system: DLD-1 colon
T-47D breast = system: T-47D breast
786-0 renal = system: 786-0 renal
A549 NSCLC = system: A549 NSCLC
SF-268 CNS = system: SF-268 CNS
EKVX NSCLC = system: EKVX NSCLC
PC-3 prostate = system: PC-3 prostate
SR leukemia = system: SR leukemia
MDA-N = system: MDA-N
MDA-MB-435 = system: MDA-MB-435
BT-549 breast = system: BT-549 breast
SN12C renal = system: SN12C renal
SW-620 colon = system: SW-620 colon
ACHN renal = system: ACHN renal
A498 renal = system: A498 renal
SK-MEL-28 melanoma = system: SK-MEL-28 melanoma
UO-31 renal = system: UO-31 renal
HOP-92 NSCLC = system: HOP-92 NSCLC
SF-539 CNS = system: SF-539 CNS
NCI-H226 lung = system: NCI-H226 lung
TK-10 renal = system: TK-10 renal
SNB-78 CNS = system: SNB-78 CNS
MDA-MB-231 breast = system: MDA-MB-231 breast
MCF7 breast = system: MCF7 breast
P388/ADR leukemia = system: P388/ADR leukemia
OVCAR-4 ovarian = system: OVCAR-4 ovarian
SK-MEL-2 melanoma = system: SK-MEL-2 melanoma
DMS 114 small cell lung = system: DMS 114 small cell lung
UACC-257 melanoma = system: UACC-257 melanoma
LOX IMVI melanoma = system: LOX IMVI melanoma
SK-MEL-5 melanoma = system: SK-MEL-5 melanoma
NCI-H460 lung = system: NCI-H460 lung
HT29 colon = system: HT29 colon
HOP-62 NSCLC = system: HOP-62 NSCLC
OVCAR-3 ovarian = system: OVCAR-3 ovarian
HCT-116 colon = system: HCT-116 colon
M14 melanoma = system: M14 melanoma
RPMI-8226 leukemia = system: RPMI-8226 leukemia
SF-295 CNS = system: SF-295 CNS
MALME-3M melanoma = system: MALME-3M melanoma
DMS 273 small cell lung = system: DMS 273 small cell lung
LXFL 529 NSCLC = system: LXFL 529 NSCLC
COLO 205 colon = system: COLO 205 colon
HL-60(TB) leukemia = system: HL-60(TB) leukemia
U251 CNS = system: U251 CNS
OVCAR-8 ovarian = system: OVCAR-8 ovarian
HCC-2998 colon = system: HCC-2998 colon
CCRF-CEM leukemia = system: CCRF-CEM leukemia
IGROV1 ovarian = system: IGROV1 ovarian
MOLT-4 leukemia = system: MOLT-4 leukemia
NCI-H23 lung = system: NCI-H23 lung
RXF 393 renal = system: RXF 393 renal
K-562 leukemia = system: K-562 leukemia
HCT-15 colon = system: HCT-15 colon
XF 498 CNS = system: XF 498 CNS
M19-MEL melanoma = system: M19-MEL melanoma
UACC-62 melanoma = system: UACC-62 melanoma
RXF-631 renal = system: RXF-631 renal

SMILES: C=C1CC2CC[C@@]34CC5O[C@@H]6C(O[C@H]7CC[C@H](CC(=O)OC8C(C)C9OC%10C[C@]%11(C[C@@H]%12O[C@]%13(CC(C)[C@@H]%14O[C@H](C(O)CC(O)CO)C[C@@H]%14O%13)CC(C)[C@@H]%12O%11)OC%10CC9O[C@H]8C[C@H]8OC(CC[C@@H]1O2)C[C@@H](C)C8=C)OC7[C@@H]6O3)[C@H]5O4 (stereo partly drawn)
- TGI (OVCAR-5 ovarian): 7.64 nM
- TGI (KM20L2 colon): 1.67 nM
- TGI (SNB-19 CNS): 1820 nM
- GI50 (HS 578T breast): 0.182 nM
- TGI (CAKI-1 renal): 464 nM and 1540 nM
- TGI (NCI-H522 lung): 0.7 nM and 0.489 nM and 0.304 nM
- GI50 (DLD-1 colon): 0.255 nM
- TGI (DLD-1 colon): 2550 nM
- TGI (T-47D breast): 5320 nM
- TGI (786-0 renal): 1220 nM
- TGI (A549 NSCLC): 2550 nM and 1650 nM
- TGI (SF-268 CNS): 2550 nM and 1470 nM
- TGI (EKVX NSCLC): 2850 nM
- GI50 (PC-3 prostate): 0.886 nM
- GI50 (SR leukemia): 0.0153 nM
- GI50 (MDA-N): 0.0269 nM and 0.151 nM
- TGI (MDA-N): 0.756 nM and 2.65 nM
- TGI (MDA-MB-435): 0.511 nM
- TGI (BT-549 breast): 2690 nM
- TGI (SN12C renal): 2550 nM and 6410 nM
- TGI (SW-620 colon): 2550 nM
- TGI (ACHN renal): 1280 nM
- TGI (A498 renal): 32.1 nM and 6.79 nM
- GI50 (SK-MEL-28 melanoma): 1.01 nM
- TGI (UO-31 renal): 2460 nM
- GI50 (HOP-92 NSCLC): 15.6 nM and 6.03 nM
- TGI (SF-539 CNS): 4.2 nM and 3.72 nM and 1.3 nM
- TGI (NCI-H226 lung): 7.09 nM and 7.25 nM and 21.7 nM
- TGI (TK-10 renal): 16800 nM
- GI50 (SNB-78 CNS): 0.255 nM
- TGI (SNB-78 CNS): 2550 nM
- GI50 (MDA-MB-231 breast): 2.67 nM
- TGI (MCF7 breast): 2550 nM and 21400 nM
- TGI (P388/ADR leukemia): 8.46 nM
- TGI (OVCAR-4 ovarian): 838 nM and 2420 nM
- TGI (SK-MEL-2 melanoma): 9.31 nM and 4.34 nM
- GI50 (DMS 114 small cell lung): 0.255 nM
- TGI (DMS 114 small cell lung): 5.54 nM and 8.56 nM

SMILES: COC(=O)CC(C(C(=O)OCc1ccccc1)C(C)O)N1C(=O)OC(c2ccccc2)C1c1ccccc1 (stereo not drawn)
- TGI (UACC-257 melanoma): > 100000 nM
- TGI (KM20L2 colon): > 100000 nM
- TGI (LOX IMVI melanoma): > 100000 nM
- TGI (SK-MEL-5 melanoma): > 100000 nM
- TGI (SNB-19 CNS): > 100000 nM
- TGI (NCI-H460 lung): > 100000 nM
- TGI (DLD-1 colon): > 100000 nM
- TGI (HT29 colon): > 100000 nM
- TGI (786-0 renal): > 100000 nM
- TGI (HOP-62 NSCLC): > 100000 nM
- TGI (OVCAR-3 ovarian): > 100000 nM
- TGI (A549 NSCLC): > 100000 nM
- TGI (SF-268 CNS): > 100000 nM
- TGI (EKVX NSCLC): > 100000 nM
- TGI (HCT-116 colon): > 100000 nM
- TGI (SR leukemia): > 100000 nM
- TGI (M14 melanoma): > 100000 nM
- TGI (RPMI-8226 leukemia): > 100000 nM
- TGI (SF-295 CNS): > 100000 nM
- TGI (MALME-3M melanoma): > 100000 nM
- TGI (DMS 273 small cell lung): > 100000 nM
- TGI (LXFL 529 NSCLC): > 100000 nM
- TGI (COLO 205 colon): > 100000 nM
- TGI (HL-60(TB) leukemia): > 100000 nM
- TGI (U251 CNS): > 100000 nM
- TGI (OVCAR-8 ovarian): > 100000 nM
- TGI (HCC-2998 colon): > 100000 nM
- TGI (CCRF-CEM leukemia): > 100000 nM
- TGI (SN12C renal): > 100000 nM
- TGI (SW-620 colon): > 100000 nM
- TGI (ACHN renal): > 100000 nM
- TGI (IGROV1 ovarian): > 100000 nM
- TGI (A498 renal): > 100000 nM
- TGI (SK-MEL-28 melanoma): > 100000 nM
- TGI (UO-31 renal): > 100000 nM
- TGI (MOLT-4 leukemia): > 100000 nM
- TGI (NCI-H23 lung): > 100000 nM
- TGI (SF-539 CNS): > 100000 nM
- TGI (NCI-H226 lung): > 100000 nM
- TGI (RXF 393 renal): > 100000 nM
- TGI (K-562 leukemia): > 100000 nM
- TGI (TK-10 renal): > 100000 nM
- TGI (HCT-15 colon): > 100000 nM
- TGI (XF 498 CNS): > 100000 nM
- TGI (M19-MEL melanoma): > 100000 nM
- TGI (OVCAR-4 ovarian): > 100000 nM
- TGI (UACC-62 melanoma): > 100000 nM
- TGI (SK-MEL-2 melanoma): > 100000 nM
- TGI (RXF-631 renal): > 100000 nM
- TGI (DMS 114 small cell lung): > 100000 nM
